From patent publication US20220170945A1, “METHOD FOR ASSISTING EVALUATION OF RENAL PATHOLOGICAL CONDITIONS, SYSTEM FOR EVALUATING RENAL PATHOLOGICAL CONDITIONS AND PROGRAM FOR EVALUATING RENAL PATHOLOGICAL CONDITIONS” (Kagami Inc., priority 2019, published 2022)

Settings: human, in vivo
Description: According to the invention, the excretion rate (excretion) is a marker representing the degree of discharge into urine of the amount of target components that have been filtered through the glomeruli by way of the regulating function of the renal tubules (reabsorption and secretion), and it is expressed as a proportion or percentage, or in arbitrary units. The value can be calculated after excluding the effect of reabsorption or concentration of water by correction using a correction factor, and expressed as fractional excretion (FE). Since urine often has a variable concentration rate, the percentages of reabsorption and excretion of D-serine and/or D-asparagine in the kidneys of a subject may be corrected using a “correction factor” that corrects for the urine concentration rate. According to one embodiment of the invention, for example, the subject D-serine excretion rate and/or the subject D-asparagine excretion rate may be corrected by a correction factor derived from the blood and/or urine. In its most simple form, the excretion rate is expressed as a percentage of the amount of target components in urine divided by the glomerular filtration rate for the target components, and the glomerular filtration rate obtained by inulin clearance or the actually measured urinary volume, as well as the amounts of target components in blood and/or in urine, may also be used for the calculation. L-amino acid levels (preferably the levels of L-serine and/or L-asparagine) in urine may also be used as urinary volume correction factors for calculation of the D-amino acid excretion rate. Creatinine clearance, calculated by urine creatinine level or the blood creatinine level, may also be used as a correction factor, expressing the D-serine excretion rate by the following formula, for example. This may then be multiplied by 100 to obtain a percent (%).
The test protocol was approved by the ethics committee of the national research and development agency: National Institutes of Biomedical Innovation, Health and Nutrition, and written informed consent was obtained from all of the test subjects.
Sample preparation from human blood plasma and urine was carried out as follows: First a 20-fold volume of methanol was added to and completely mixed with the blood plasma. […]
The amino acid optical isomers were quantified using the following two-dimensional HPLC system. […] NBD-amino acids were detected by fluorescence detection at 530 nm using excitation light of 470 nm. The NBD-amino acid retention time was identified from standard amino acid optical isomers and quantified by a calibration curve.
The blood urine D-serine level and blood urine D-asparagine level and creatinine level were calculated by substitution into the following formulas.

excretion rate after administration of ARB [%] | excretion rate before administration of ARB [%] | Compound
35.39 | 45.71 | NC(=O)C[C@@H](N)C(=O)O [D-asparagine]
25.73 | 64.56 | N[C@H](CO)C(=O)O [D-serine]
